Four compounds from US20040223977A1, “Fusion peptide HIV vaccines” (City of Hope, priority 2003, published 2004) can be followed below.

In data set [1] the test system is naïve HLA A2/K^b splenocytes. Description: Lymphocyte proliferation assay (3H-thymidine incorporation). It counts as cell-based, transgenic HLA A2/K^b mice. The note with it: 48 hours culture, up to 1.6 μM ODN. The protocol:
A naïve transgenic A2/K^b spleen cell suspension was prepared as described for immunized splenocytes in Example 4. Following the removal of erythrocytes using red cell lysis buffer (0.15 M NH4Cl, 1 mM KHCO3, 0.1 mM Na2EDTA in distilled H2O) and subsequent washing, the concentration was adjusted to 4×10^6 cells/ml in complete in vitro stimulation (IVS) medium. One hundred microliters of splenocyte suspension was plated onto 96 well U-bottomed plate along with 100 μl of serially diluted CpG DNA in serum-free IVS medium. Concanavalin A (Sigma, St. Louis, Mo.) at a concentration of 5 μg/ml and unstimulated splenocytes were used as positive and negative controls respectively. […] Levels of TdR uptake were determined by liquid scintillation using a TriLux counter (Wallac, […]). Results were expressed as a stimulation index (SI) compared to unstimulated splenocytes.
In vitro analysis of the proliferative effect of two synthetic ODNs was conducted using naïve HLA A2/K^b splenocytes. […] Proliferative responses were determined by ^3H-thymidine incorporation using naïve transgenic A2/K^b splenocytes cultured with immunostimulatory ODN 1826 (SEQ ID NO:5; black bar) or control ODN sequence 1984 (SEQ ID NO:6; white bar) for 48 hours. […]
(Dividing cells build labelled thymidine or BrdU into new DNA.)

The test system of data set [2] is IV9 peptide-loaded T2 cells.
In data set [3] the test system is T2 target cells pulsed with SEQ ID NO:10. Briefly: Chromium release assay after immunization with SEQ ID NO:11, T2 targets pulsed with SEQ ID NO:10. It counts as in vivo, HLA A2.1/Kb transgenic mice.

Square brackets hold non-standard residues; d marks the D form. Peptide text beside a SMILES is read from it. Cha = N[C@@H](CC1CCCCC1)C(=O)O Some results are limits rather than exact numbers.

As for “5′ TCCAGGACTTCTCTCAGGTT 3′ (chemistry not given here) [ODN 1984]”, the “proliferative response (stimulation index)” value in data set [1] is “little or no proliferation”.
Consider 5′ TCCATGACGTTCCTGACGTT 3′ [ODN 1826], for which the “amount of CpG DNA per dose capable of augmenting the CTL response” value in data set [2] (co-administered with fusion peptide (50 nmoles PADRE-IV9 elsewhere in the source), s.c., saline) was at most 1 µg. Also, the “plateau of CTL response” value in data set [2] (with 50 nmoles PADRE-IV9, E:T of 6, up to 25 μg CpG DNA) is on record as “no clear plateau”. Moreover, the “proliferative response (stimulation index)” value in data set [1] is on record as “potent generalized proliferative response”.
Regarding `CC[C@H](C)[C@H](NC(=O)[C@H](C)NC(=O)[C@H](C)NC(=O)[C@H](C)NC(=O)[C@H](CCCCN)NC(=O)[C@H](CC(C)C)NC(=O)[C@@H](NC(=O)[C@H](Cc1c[nH]c2ccccc12)NC(=O)[C@H](C)NC(=O)[C@H](C)NC(=O)[C@@H](NC(=O)[C@H](CC1CCCCC1)NC(=O)[C@H](CCCCN)NC(=O)[C@H](C)N)C(C)C)[C@@H](C)O)C(=O)N[C@@H](CC(C)C)C(=O)N[C@@H](CCCCN)C(=O)N[C@@H](CCC(=O)O)C(=O)N1CCC[C@H]1C(=O)N[C@H](C(=O)N[C@@H](Cc1c[nH]cn1)C(=O)NCC(=O)N[C@H](C(=O)O)C(C)C)C(C)C` [PADRE-IV9, AKXVAAWTLKAAAILKEPVHGV] (H-AK[Cha]VAAWTLKAAAILKEPVHGV-OH), in data set [2] (between 10-15 nmoles of peptide, E:T ratio of 25), the cytotoxicity entry is given as “approximately 15%”.
Take “KSSAKXVAAWTLKAAASLYNTVATL [SEQ ID NO:11, PADRE-Gag77-85 fusion peptide]”: the “specific recognition (non-specific recognition subtracted)” value in data set [3] (25 nmoles with 25 μg ODN 1826 s.c., E:T 4) is on record as 41%; in data set [3] (25 nmoles with 25 μg ODN 1826 s.c., E:T 20), 62%; in data set [3] (25 nmoles with 25 μg ODN 1826 s.c., E:T 100) it was 49%; in data set [3] (50 nmoles with 25 μg ODN 1826 s.c., E:T 4), 9.3%; in data set [3] (50 nmoles with 25 μg ODN 1826 s.c., E:T 20), 30%; in data set [3] (50 nmoles with 25 μg ODN 1826 s.c., E:T 100) it was 33%.
